{"source": "patent US6458765B1", "about": "“Dolastatin 15 derivatives” (BASF Aktiengesellschaft, priority 1997, dated 2002)", "data": [{"tested_on": "not given", "settings": "synthetic Dolastatin 15; cited from earlier work", "values": [{"substance": "Dolastatin 15", "solubility in aqueous systems": "poor solubility"}]}, {"tested_on": "P388 lymphocytic leukemia (PS system) cell line", "settings": "National Cancer Institute's P388 (PS system); cited from earlier work", "values": [{"substance": "Dolastatin 15", "inhibition of growth of P388 cell line": "markedly inhibits the growth"}]}, {"tested_on": "HT-29 colon carcinoma cells", "assay_type": "cell-based", "settings": "not given", "units": {"IC50": "nM"}, "values": [{"substance": "Me2Aib-Val-MeVal-Pro-Pro-NHBn [Compound 3]", "IC50": 35}, {"substance": "Xad Val Xaa Pro Xap [Compound 13]", "IC50": 1}, {"substance": "Xae Val Xaa Pro Xab [Compound 8]", "IC50": 510}, {"substance": "Xam Val Xaa Pro Xab [Compound 10]", "IC50": 130}, {"substance": "Xao Val Xaa Pro Xab [Compound 12]", "IC50": 370}, {"substance": "Xaq Val Xaa Pro Xab [Compound 14]", "IC50": 1.5}, {"substance": "Xar Val Xaa Pro Xab [Compound 15]", "IC50": 170}, {"substance": "Xas Val Xaa Pro Xab [Compound 16]", "IC50": 0.73}, {"substance": "Xat Val Xaa Pro Xab [Compound 17]", "IC50": 63}, {"substance": "Xat Val Xaa Pro Xab [Compound 18]", "IC50": 8.8}, {"substance": "Xau Val Xaa Pro Xab [Compound 76]", "IC50": 0.23}, {"substance": "Xau Val Xaa Pro Xab [Compound 77]", "IC50": 7.2}, {"substance": "Xau Val Xaa Pro Xbp [Compound 73]", "IC50": 1.4}, {"substance": "Xau Val Xaa Pro Xbp [Compound 96]", "IC50": 1.7}, {"substance": "Xau Val Xaa Pro Xbp [Compound 97]", "IC50": 32}, {"substance": "Xau Val Xaa Pro Xbx [Compound 74]", "IC50": 51}, {"substance": "Xau Val Xaa Pro Xcb [Compound 78]", "IC50": 4.3}, {"substance": "Xau Val Xaa Pro Xcc [Compound 90]", "IC50": 0.93}, {"substance": "Xau Val Xaa Pro Xcd [Compound 91]", "IC50": 0.83}, {"substance": "Xaw Val Xaa Pro Xbn [Compound 45]", "IC50": 56}, {"substance": "Xaw Val Xaa Pro Xbp [Compound 48]", "IC50": 25}, {"substance": "Xaw Val Xaa Pro Xbq [Compound 51]", "IC50": 46}, {"substance": "Xaw Val Xaa Pro Xbr [Compound 52]", "IC50": 340}, {"substance": "Xaw Val Xaa Pro Xbx [Compound 66]", "IC50": 340}, {"substance": "Xax Val Xaa Pro Xab [Compound 22]", "IC50": 640}, {"substance": "Xay Val Xaa Pro Xab [Compound 24]", "IC50": 28}, {"substance": "Xba Val Xaa Pro Xab [Compound 27]", "IC50": 37}, {"substance": "Xba Val Xaa Pro Xbp [Compound 100]", "IC50": 2300}, {"substance": "Xba Val Xaa Pro Xbp [Compound 101]", "IC50": 2100}, {"substance": "Xba Val Xaa Pro Xcb [Compound 92]", "IC50": 1500}, {"substance": "Xba Val Xaa Pro Xcb [Compound 93]", "IC50": 1800}, {"substance": "Xba Val Xaa Pro Xcc [Compound 102]", "IC50": 120}, {"substance": "Xba Val Xaa Pro Xcc [Compound 103]", "IC50": 110}, {"substance": "Xba Val Xaa Pro Xcd [Compound 104]", "IC50": 3500}, {"substance": "Xbb Val Xaa Pro Xab [Compound 28]", "IC50": 49}, {"substance": "Xbc Val Xaa Pro Xab [Compound 29]", "IC50": 36}, {"substance": "Xbd Val Xaa Pro Xab [Compound 30]", "IC50": 6.1}, {"substance": "Xbd Val Xaa Pro Xab [Compound 31]", "IC50": 200}, {"substance": "Xbe Val Xaa Pro Xab [Compound 32]", "IC50": 850}, {"substance": "Xbe Val Xaa Pro Xab [Compound 33]", "IC50": 1200}, {"substance": "Xbf Val Xaa Pro Xab [Compound 34]", "IC50": 5}, {"substance": "Xbf Val Xaa Pro Xab [Compound 43]", "IC50": 59}, {"substance": "Xbg Val Xaa Pro Xab [Compound 35]", "IC50": 140}, {"substance": "Xbh Val Xaa Pro Xab [Compound 36]", "IC50": 6.2}, {"substance": "Xbh Val Xaa Pro Xab [Compound 37]", "IC50": 190}, {"substance": "Xbi Val Xaa Pro Xab [Compound 38]", "IC50": 730}, {"substance": "Xbi Val Xaa Pro Xab [Compound 39]", "IC50": 25}, {"substance": "Xbi Val Xaa Pro Xbx [Compound 75]", "IC50": 850}, {"substance": "Xbi Val Xaa Pro Xcb [Compound 79]", "IC50": 1700}, {"substance": "Xbi Val Xaa Pro Xcb [Compound 80]", "IC50": 67}, {"substance": "Xbi Val Xaa Pro Xcc [Compound 81]", "IC50": 130000}, {"substance": "Xbi Val Xaa Pro Xcc [Compound 82]", "IC50": 11}, {"substance": "Xbi Val Xaa Pro Xcd [Compound 83]", "IC50": 130}, {"substance": "Xbi Val Xaa Pro Xcd [Compound 98]", "IC50": 6}, {"substance": "Xbk Val Xaa Pro Xab [Compound 40]", "IC50": 560}, {"substance": "Xbk Val Xaa Pro Xab [Compound 41]", "IC50": 7300}, {"substance": "Xbk Val Xaa Pro Xcc [Compound 84]", "IC50": 1200}, {"substance": "Xbk Val Xaa Pro Xcc [Compound 85]", "IC50": 9500}, {"substance": "Xbk Val Xaa Pro Xcd [Compound 99]", "IC50": 3800}, {"substance": "Xbl Val Xaa Pro Xab [Compound 42]", "IC50": 340}, {"substance": "Xbl Val Xaa Pro Xab [Compound 54]", "IC50": 4.2}, {"substance": "Xbl Val Xaa Pro Xab [Compound 55]", "IC50": 56}, {"substance": "Xbm Val Xaa Pro Xab [Compound 44]", "IC50": 48}, {"substance": "Xbo Val Xaa Pro Xbn [Compound 46]", "IC50": 720}, {"substance": "Xbo Val Xaa Pro Xbn [Compound 47]", "IC50": 23}, {"substance": "Xbo Val Xaa Pro Xbp [Compound 49]", "IC50": 88}, {"substance": "Xbo Val Xaa Pro Xbp [Compound 50]", "IC50": 89}, {"substance": "Xbo Val Xaa Pro Xbp [Compound 94]", "IC50": 3000}, {"substance": "Xbo Val Xaa Pro Xbp [Compound 95]", "IC50": 11}, {"substance": "Xbo Val Xaa Pro Xbq [Compound 64]", "IC50": 1700}, {"substance": "Xbo Val Xaa Pro Xbq [Compound 65]", "IC50": 97}, {"substance": "Xbo Val Xaa Pro Xbr [Compound 62]", "IC50": 99}, {"substance": "Xbo Val Xaa Pro Xbr [Compound 63]", "IC50": 56}, {"substance": "Xbo Val Xaa Pro Xbx [Compound 72]", "IC50": 120}, {"substance": "Xbs Val Xaa Pro Xbt [Compound 53]", "IC50": 5}, {"substance": "Xbs Val Xaa Pro Xbt [Compound 60]", "IC50": 1.8}, {"substance": "Xbv Val Xaa Pro Xab [Compound 57]", "IC50": 25}, {"substance": "Xbw Val Xaa Pro Xab [Compound 58]", "IC50": 63}, {"substance": "Xbw Val Xaa Pro Xab [Compound 59]", "IC50": 190}, {"substance": "Xby Val Xaa Pro Xab [Compound 67]", "IC50": 340}, {"substance": "Xbz Val Xaa Pro Xab [Compound 68]", "IC50": 420}, {"substance": "Xca Val Xaa Pro Xab [Compound 70]", "IC50": 7100}, {"substance": "Xce Val Xaa Pro Xab [Compound 105]", "IC50": 18}, {"substance": "Xcf Val Xaa Pro Xab [Compound 106]", "IC50": 97}, {"substance": "Xcg Val Xaa Pro Xab [Compound 108]", "IC50": 7100}, {"substance": "[N,N-Dimethyl-2-ethyl-2-phenylglycyl]-Val-MeVal-Pro-Pro-NHBn×HCl [Compound 4]", "IC50": 1.2}, {"substance": "[N-Methyl-D-Pro]-Val-MeVal-Pro-Pro-NHBn [Compound 5]", "IC50": 5}, {"substance": "[N-Methyl-D-piperidine-2-carbonyl]-Val-MeVal-Pro-Pro-NHBn [Compound 2]", "IC50": 0.68}, {"substance": "[N-Methyl-L-piperidine-2-carbonyl]-Val-MeVal-Pro-Pro-NHBn [Compound 1]", "IC50": 47}]}]}
